Reference: US10189826B2, “Heterocyclic compounds and methods of use” (Medivation Technologies LLC, priority 2015, dated 2019)
Read-outs that look alike come from different tables or passages of the source.

Assays:
[1] = test system: SREBP-2 transcriptional activity (SREBP2 cleavage) in HepG2_LSSprom cells; experiment: Luciferase reporter driven by a SREBP-2 specific promoter in HepG2_LSSprom cells; format: cell-based
Method: Dose response effects were measured of Compounds on the transcriptional activity of a Luciferase reporter driven by a SREBP-2 specific promoter in HepG2_LSSprom cells.
(§1) HepG2_LSSprom cells (SwitchGear Genomics, cat# C711010L) were cultured in DMEM with 10% of fetal bovine serum (FBS), supplemented with Puromycin (1 μg/mL), 1% Penicillin/Streptomycin (Pen-Strep), 37° C., humidified, 95% air and 5% CO2. Culture media was refreshed every 2 or 3 days. Cells were used between passage number 6-12.
For luminescence assays, cells were plated out at 20,000 cells/well in white 96 well plates in DMEM plus 10% FBS and 1% Pen-Strep without puromycin. After 1 day, cells were treated with Compound by diluting the drug in culture medium without FBS to a final concentration of 0.625, 1.25, 2.5, 3.75, 5 and 10 μM. Drug was prepared by dilutions of 10 mM stock aliquots. As control was used culture medium without FBS plus DMSO. Treatments with Compound were maintained for 6 h, or 24 h, until the luciferase assay was carried out.
After 6 h of treatments with Compound, the luciferase assay was performed. Briefly, the assay solution (buffer+substrate) was prepare just prior to use. To each well 100 μL of assay solution was added. The 96-well plate was then gently mix for 2 min and incubated for 30 min at RT protected from light. The luminescence was read using a Synergy 4 (Biotek) equipment recording luminescence with sensibility set up at 150.
(§2) Five independent experiments were carried out for both luciferase and cytotoxicity assay. In each experiment, three wells were use per condition and the results are represented as means±SEM.
For luciferase assay, Vehicle (no treatment) was taken as 100% of luciferase activity. This value represents the SREBP-2 transcriptional activity for the vehicle condition and was taken as 100% of SREBP-2 cleaved. The percentage for each treatment was calculated normalizing against the vehicle control. The graphics were made using the GraphPad Prism ver. 6.05 software. Half of maximal inhibitory concentration (IC50) of the effect of Compound on SREBP was obtain by nonlinear fit regression of mean normalized values vs. Compound concentration using the log(inhibitor) vs. response−Variable slope (four parameters) tool.

[2] = Cytotoxicity assay (LDH release) in HepG2_LSSprom cells; format: cell-based; details: human, HepG2 LSSprom cells, LDH release; for IC50 at 24 h: 24 h treatment; for IC50 at 6 h: 6 h treatment
Method: as §1
For cytotoxicity assays, cells were plated out at 20,000 cells/well in transparent 96 well plates in DMEM plus 10% FBS and 1% Pen-Strep without puromycin. After 1 day, cells were treated with Compound by diluting in culture medium without FBS to a final concentration of 0.625, 1.25, 2.5, 3.75, 5 and 10 μM. Compound was prepared by dilutions of 10 mM stock aliquots. As a negative control culture medium was used without FBS plus DMSO. As maximum LDH release control (Lysis control) a lysis buffer provided by the kit manufacturer was used. Treatments with Compound were maintained for 6 h, or 24 h, in cell culture medium without serum until the cytotoxicity assay was started.
The cytotoxicity assay was performed according to the manufacturer's instructions. As maximum LDH release control (Lysis control) 3 wells per plate were treated with 10 μL of lysis buffer 45 min before the treatment was over. Briefly, after the 6 h, or 24 h, of treatment, 50 μL of media from each well was transferred to a new 96-well plate. To the transferred media, 50 μL of reconstituted substrate mix was added. The plates were covered from light and incubated at RT for 10 min. Then, 50 μL of stop solution was added to each well. The plates were then read using a Synergy 4 (Biotek) equipment recording the absorbance at 490 nm.
as §2
For cytotoxicity assay, Lysis control was taken as 100%/o of LDH release. The vehicle values were taken as basal LDH release and were subtracted to all the treatments (including vehicle itself) having this value as 0% of LDH release. The LDH release for the treatments was calculated respect to the 100% of LDH release of Lysis control normalized against vehicle. All the negatives values were taken as 0% of cytotoxicity. The graphics were made using the Graph Prism ver. 6.05 software.

[3] = 24 h, 24 h treatment, HepG2_LSSprom cells, read-out: SREBP2 Cleavage (IC50 μM) 24 h
[4] = 6 h, 6 h treatment, HepG2_LSSprom cells, read-out: SREBP2 Cleavage (IC50 μM) 6 h

SMILES | IC50 [1, 3] | IC50 at 24 h [2] | IC50 [1, 4] | also measured
CC(C)(C)OC(=O)NC1CCCN(C(=O)c2ccc(-c3csc(-c4ccnc(C(C)(C)C)c4)c3)c(Cl)c2)C1 (racemic) [Compound 19, tert-butyl N-(1-{4-[5-(2-tert-butylpyridin-4-yl)thiophen-3-yl]-3-chlorobenzoyl}piperidin-3-yl)carbamate] | 0.25 µM | > 3 µM | – | –
CC(C)(C)c1cc(-c2cc(-c3ccc(C(=O)N4CCCC(N)C4)cc3Cl)cs2)ccn1 (racemic) [Compound 21, 1-{4-[5-(2-tert-butylpyridin-4-yl)thiophen-3-yl]-3-chlorobenzoyl}piperidin-3-amine] | > 1 µM | > 3 µM | – | –
CC(C)(C)c1cc(-c2cc(-c3ccc(C(=O)N4CCCC(NS(C)(=O)=O)C4)cc3Cl)cs2)ccn1 (racemic) [Compound 31, N-(1-{4-[5-(2-tert-butylpyridin-4-yl)thiophen-3-yl]-3-chlorobenzoyl}piperidin-3-yl)methanesulfonamide] | 0.99 µM | > 10 µM | – | –
CC(=O)NC1CCCN(C(=O)c2ccc(-c3csc(-c4ccnc(C(C)(C)C)c4)c3)c(Cl)c2)C1 (racemic) [Compound 32, N-[1-[4-[5-(2-tert-butyl-4-pyridyl)-3-thienyl]-3-chloro-benzoyl]-3-piperidyl]acetamide] | – | > 10 µM | – | IC50 ([1]; 24 h, read-out: SREBP2 Cleavage (IC50 μM) 24 h): 0.81 µM
CC(C)(C)c1cc(-c2cc(-c3ccc(C(=O)N4CCCC(N5CCCC5=O)C4)cc3Cl)cs2)ccn1 (racemic) [Compound 34, 1-(1-{4-[5-(2-tert-butylpyridin-4-yl)thiophen-3-yl]-3-chlorobenzoyl}piperidin-3-yl) pyrrolidin-2-one] | 0.85 µM | > 10 µM | – | –
CC(C)(C)c1cc(-c2cc(-c3ccc(C(=O)N4CCCC(N5CCCS5(=O)=O)C4)cc3Cl)cs2)ccn1 (racemic) [Compound 36, 2-(1-{4-[5-(2-tert-butylpyridin-4-yl)thiophen-3-yl]-3-chlorobenzoyl}piperidin-3-yl)-1λ^6,2-thiazolidine-1,1-dione] | 0.49 µM | > 10 µM | – | –
CC1(N)CCCN(C(=O)c2ccc(-c3cc(-c4ccnc(C(C)(C)C)c4)cs3)c(Cl)c2)C1 (single isomer, unassigned) [Compound 95a] | – | > 10 µM | – | IC50 ([1]; 24 h treatment, HepG2_LSSprom cells, read-out: SREBP2 Cleavage (IC50 μM) 24 h): 0.26 µM
CC(C)(C)c1cc(-c2cc(-c3ccc(C(=O)N4CCNC(=O)C4)cc3Cl)cs2)ccn1 [Compound 7, 4-{4-[5-(2-tert-butylpyridin-4-yl)thiophen-3-yl]-3-chlorobenzoyl}piperazin-2-one] | > 1 µM | > 3 µM | – | –
CC(C)(C)c1cc(-c2cc(-c3ccc(C(=O)NC4CCC4)cc3Cl)cs2)ccn1 [Compound 8, 4-[5-(2-tert-butylpyridin-4-yl)thiophen-3-yl]-3-chloro-N-cyclobutylbenzamide] | > 3 µM | > 3 µM | – | –
CN1CCN(C(=O)c2ccc(-c3csc(-c4ccnc(C(C)(C)C)c4)c3)c(Cl)c2)CC1 [Compound 10, 1-{4-[5-(2-tert-butylpyridin-4-yl)thiophen-3-yl]-3-chlorobenzoyl}-4-methylpiperazine] | > 3 µM | – | – | –
CC(C)(C)c1cc(-c2cc(-c3ccc(C(=O)N4CCCCC4)cc3Cl)cs2)ccn1 [Compound 11, 2-tert-butyl-4-{4-[2-chloro-4-(piperidine-1-carbonyl)phenyl]thiophen-2-yl}pyridine] | 0.3 µM | – | < 1 µM | IC50 at 6 h [2]: > 10 µM
CC(C)(C)c1cc(-c2cc(-c3ccc(C(=O)N4CCC(F)(F)C4)cc3Cl)cs2)ccn1 [Compound 12, 2-tert-butyl-4-{4-[2-chloro-4-(3,3-difluoropyrrolidine-1-carbonyl)phenyl]thiophen-2-yl}pyridine] | 0.5 µM | – | > 10 µM | IC50 at 6 h [2]: > 10 µM
CC(C)(C)c1cc(-c2cc(-c3ccc(C(=O)N4CCC(F)(F)CC4)cc3Cl)cs2)ccn1 [Compound 13, 2-tert-butyl-4-{4-[2-chloro-4-(4,4-difluoropiperidine-1-carbonyl)phenyl]thiophen-2-yl}pyridine] | 0.54 µM | – | > 10 µM | IC50 at 6 h [2]: > 10 µM
CC(C)(C)c1cc(-c2cc(-c3ccc(C(=O)NC4CC4)cc3Cl)cs2)ccn1 [Compound 14, 4-[5-(2-tert-butylpyridin-4-yl)thiophen-3-yl]-3-chloro-N-cyclopropylbenzamide] | – | – | 3.17 µM | –
CC(C)(C)NC(=O)c1ccc(-c2csc(-c3ccnc(C(C)(C)C)c3)c2)c(Cl)c1 [Compound 15, N-tert-butyl-4-[5-(2-tert-butylpyridin-4-yl)thiophen-3-yl]-3-chlorobenzamide] | – | – | > 5 µM | –
Cc1sc(-c2ccnc(C(C)(C)C)c2)cc1-c1ccc(C(=O)N2CCCCC2)cc1Cl [Compound 16, 2-tert-butyl-4-{4-[2-chloro-4-(piperidine-1-carbonyl)phenyl]-5-methylthiophen-2-yl}pyridine] | 0.81 µM | > 3 µM | – | –
O=C(c1ccc(-c2csc(-c3ccnc(N4CCCCC4)c3)n2)c(Cl)c1)N1CCOCC1 [Compound 17, 4-(3-chloro-4-{2-[2-(piperidin-1-yl)pyridin-4-yl]-1,3-thiazol-4-yl}benzoyl) morpholine] | > 3 µM | – | > 3 µM | –
CC(O)CNC(=O)c1ccc(-c2csc(-c3ccnc(N4CCCCC4)c3)n2)c(Cl)c1 (stereo not drawn) [Compound 18, 3-chloro-N-(2-hydroxypropyl)-4-{2-[2-(piperidin-1-yl)pyridin-4-yl]-1,3-thiazol-4-yl}benzamide] | > 3 µM | – | > 3 µM | –
CC(C)(C)OC(=O)N[C@@H]1CCCN(C(=O)c2ccc(-c3csc(-c4ccnc(C(C)(C)C)c4)c3)c(Cl)c2)C1 [Compound 19a, tert-butyl (R)-(1-(4-(5-(2-(tert-butyl)pyridin-4-yl)thiophen-3-yl)-3-chlorobenzoyl)piperidin-3-yl)carbamate] | 0.069 µM | > 10 µM | – | –
CC(C)(C)OC(=O)N[C@H]1CCCN(C(=O)c2ccc(-c3csc(-c4ccnc(C(C)(C)C)c4)c3)c(Cl)c2)C1 [Compound 19b, tert-butyl (S)-(1-(4-(5-(2-(tert-butyl)pyridin-4-yl)thiophen-3-yl)-3-chlorobenzoyl)piperidin-3-yl)carbamate] | 0.22 µM | > 10 µM | – | –
CC(C)(C)c1cc(-c2cc(-c3ccc(C(=O)N4CCS(=O)(=O)CC4)cc3Cl)cs2)ccn1 [Compound 20, 4-{4-[5-(2-tert-butylpyridin-4-yl)thiophen-3-yl]-3-chlorobenzoyl}-1λ^6,4-thiomorpholine-1,1-dione] | > 3 µM | – | – | –
CC(C)(C)c1cc(-c2cc(-c3ccc(C(=O)N4CCC[C@@H](N)C4)cc3Cl)cs2)ccn1 [Compound 21a, (R)-(3-aminopiperidin-1-yl)(4-(5-(2-(tert-butyl)pyridin-4-yl)thiophen-3-yl)-3-chlorophenyl)methanone] | 0.71 µM | > 10 µM | – | –
CC(C)(C)c1cc(-c2cc(-c3ccc(C(=O)N4CCC[C@H](N)C4)cc3Cl)cs2)ccn1 [Compound 21b, (S)-(3-aminopiperidin-1-yl)(4-(5-(2-(tert-butyl)pyridin-4-yl)thiophen-3-yl)-3-chlorophenyl)methanone] | > 3 µM | > 10 µM | – | –
